The test system of one test is HGS tumor model. Nature of the test: anti-tumor activity in HGS tumor model. As to conditions: animals treated with 20/kg of compound. Format: in vivo.
From the text: […]

The next test addresses T1, G9a (Homo sapiens, UniProt Q96KQ7).
T1 sequence (Q96KQ7 1-1210): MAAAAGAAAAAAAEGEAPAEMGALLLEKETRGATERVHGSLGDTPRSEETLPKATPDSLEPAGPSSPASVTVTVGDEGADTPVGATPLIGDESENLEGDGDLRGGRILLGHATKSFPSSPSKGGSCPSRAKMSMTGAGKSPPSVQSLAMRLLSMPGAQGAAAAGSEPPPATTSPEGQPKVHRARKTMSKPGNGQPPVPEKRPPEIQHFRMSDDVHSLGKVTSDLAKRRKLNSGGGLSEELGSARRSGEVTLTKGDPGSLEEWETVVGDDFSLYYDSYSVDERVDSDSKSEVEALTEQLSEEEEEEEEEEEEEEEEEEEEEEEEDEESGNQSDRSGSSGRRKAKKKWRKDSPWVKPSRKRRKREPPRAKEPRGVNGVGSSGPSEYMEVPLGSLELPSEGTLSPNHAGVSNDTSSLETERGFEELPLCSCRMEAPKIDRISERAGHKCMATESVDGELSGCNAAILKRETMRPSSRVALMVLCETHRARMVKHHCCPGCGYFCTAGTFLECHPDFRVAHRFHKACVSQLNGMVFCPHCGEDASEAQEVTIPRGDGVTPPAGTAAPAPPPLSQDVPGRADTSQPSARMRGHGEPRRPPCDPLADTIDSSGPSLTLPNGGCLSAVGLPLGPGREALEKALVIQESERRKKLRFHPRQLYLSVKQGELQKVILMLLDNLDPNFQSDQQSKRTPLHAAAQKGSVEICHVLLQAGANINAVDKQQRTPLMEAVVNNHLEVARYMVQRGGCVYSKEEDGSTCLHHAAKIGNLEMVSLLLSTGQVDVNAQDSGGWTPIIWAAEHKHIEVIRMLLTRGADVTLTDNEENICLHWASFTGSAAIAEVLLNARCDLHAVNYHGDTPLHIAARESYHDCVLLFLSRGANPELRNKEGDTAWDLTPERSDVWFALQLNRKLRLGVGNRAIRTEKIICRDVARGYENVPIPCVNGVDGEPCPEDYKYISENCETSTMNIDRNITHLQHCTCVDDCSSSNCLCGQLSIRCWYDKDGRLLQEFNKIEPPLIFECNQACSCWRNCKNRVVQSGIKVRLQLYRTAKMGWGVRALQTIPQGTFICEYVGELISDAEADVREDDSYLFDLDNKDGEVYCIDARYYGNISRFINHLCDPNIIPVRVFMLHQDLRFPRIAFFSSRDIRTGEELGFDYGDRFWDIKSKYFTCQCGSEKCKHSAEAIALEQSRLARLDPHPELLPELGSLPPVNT
Nature of the test: G9a AlphaLISA enzymatic activity assay. Format: biochemical. To be noted: 0.15 nM G9a, 15 uM S-adenosyl-methionine, 100 nM biotinylated histone 3 peptide (1-21), 1 hour room temperature. The source says:
The G9a AlphaLISA assay was used to detect the methyl modifications of a biotinylated histone H3 peptide by the compounds. These modifications are done by the histone methyl transferase activity of the G9a enzyme. The assay consists of reading a chemiluminescent signal at 615 nm; this signal is generated by a laser excitation at 680 nm that transfers a reactive singlet oxygen between the donor beads and acceptor beads. Donor beads are streptavidin conjugated and bind to the biotin on the peptide. Acceptor beads are conjugated with an antibody that recognizes the specific G9a methyl mark on the peptide. If there is a methyl mark on the peptide, the acceptor beads will bind to the peptide. Upon binding, the acceptor beads will be in close proximity (<200 nm) of the donor beads and when the donor beads are excited, the transfer of the oxygen can occur and a strong signal will be generated. If there is no methyl mark, the interaction between beads will not occur and signal will be at background levels.
For the assay, the following buffer was used to set up reactions: 50 mM Tris-HCl pH9, 50 mM NaCl, 0.01% Tween-20 and 1 mM DTT (added fresh prior to starting the reactions). The assay is set up by adding a final concentration of 0.15 nM G9a, 15 uM S-adenosyl-methionine and, 100 nM biotinylated histone 3 peptide (1-21). The reaction is incubated at room temperature for 1 hour, and subsequently quenched by the addition of the acceptor beads (anti-H3k9me2 AlphaLISA acceptor beads, PerkinElmer #AL117) at a final concentration of 20 ug/mL. The acceptor beads are incubated for 1 hour. After 1 hour, the donor beads are added at a final concentration of 20 ug/mL (Alpha Streptavidin donor beads, PerkinElmer #6760002). Donor beads are incubated for 0.5 hours. Both donor and acceptor beads are resuspended in AlphaLISA 5X Epigenetics Buffer 1 Kit (PerkinElmer #AL008) prior to addition to the reaction. All manipulations and incubations with the donor and acceptor beads are done in subdued light. Signal is detected in an EnVision plate reader in Alpha mode (see ACS Med Chem Lett. 2014 Jan. 2; 5(2):205-9. doi: 10.1021/m1400496h. eCollection 2014. Discovery and development of potent and selective inhibitors of histone methyltransferase g9a.)
Percent inhibition was calculated for each compound dilution and the concentration that produced 50% inhibition was calculated. This value is presented as the IC50.

Where a name gives a salt, the structure may show the parent alone.

Experimental findings from patent US11254651B2, “Histone methyltransferase inhibitors” (GLOBAL BLOOD THERAPEUTICS, INC., priority 2016, dated 2022) are described below.

For `C=CC(=O)N1CCN(CCCn2c(=O)c(-c3c(Cl)c(OC)cc(OC)c3Cl)cc3cnc(NC)nc32)CC1` [8-(3-(4-acryloylpiperazin-1-yl)propyl)-6-(2,6-dichloro-3,5-dimethoxyphenyl)-2-(methylamino)pyrido[2,3-d]pyrimidin-7(8H)-one], the “antitumor activity” value in the test with HGS tumor model is “significant antitumor activity and induced tumor regression”. In the test on HGS tumor model (day 42 after inoculation), this molecule yielded a tumor size of 55 mm3.

Consider `COC(=O)CNc1c2ccccc2nc2cc(OCCCN3CCCC3)c(OC)cc12` [Entry 105, methyl 2-({2-methoxy-3-[3-(pyrrolidin-1-yl)propoxy]acridin-9-yl}amino)acetate formate], for which the IC50 on G9a was 20.6 nM.

Consider `COc1cc2c(NC3CCOCC3)c3cc(C)ccc3nc2cc1OCCCN1CCCC1` [Entry 114, 2-methoxy-7-methyl-N-(oxan-4-yl)-3-[3-(pyrrolidin-1-yl)propoxy]acridin-9-amine formate], for which the IC50 at G9a came out at 54.3 nM. With `COc1ccc2nc3cc(OCCCN4CCCC4)c(OC)cc3c(NC3CCOCC3)c2c1` [Entry 115, 2,7-dimethoxy-N-(oxan-4-yl)-3-[3-(pyrrolidin-1-yl)propoxy]acridin-9-amine trifluoroacetate], on G9a, the IC50 worked out at 215 nM. `CNc1c2ccccc2nc2cc(OCCCN3CCC(F)C3)c(OC)cc12` (centres unmarked) [Entry 117, 3-[3-(3-fluoropyrrolidin-1-yl)propoxy]-2-methoxy-N-methylacridin-9-amine formate] gave an IC50 against G9a of 139 nM.

In turn, `CNc1c2ccccc2nc2cc(OCCCN(C)C)c(OC)cc12` [Entry 119, 3-[3-(dimethylamino)propoxy]-2-methoxy-N-methylacridin-9-amine trifluoroacetate] gave an IC50 at G9a of 28.5 nM. Same read-out and setting: the same measure for `COc1cc2c(NC(C)C)c3cccc(F)c3nc2cc1OCCCN1CCCC1` [Entry 120, 5-fluoro-2-methoxy-N-(propan-2-yl)-3-[3-(pyrrolidin-1-yl)propoxy]acridin-9-amine formate]: 62 nM; for `COc1cc2c(NC(C)C)c3cnccc3nc2cc1OCCCN1CCCC1` [Entry 121, 8-methoxy-N-(propan-2-yl)-7-[3-(pyrrolidin-1-yl)propoxy]benzo[b]1,6-naphthyridin-10-amine formate]: 64.2 nM. For `COc1cc2c(NC(C)C)c3ncccc3nc2cc1OCCCN1CCCC1` [Entry 122, 8-methoxy-N-(propan-2-yl)-7-[3-(pyrrolidin-1-yl)propoxy]benzo[b]1,5-naphthyridin-10-amine formate], the IC50 at G9a was 23.8 nM.

Take `COc1cc2c(NCC(C)(C)O)c3cccnc3nc2cc1OCCCN1CCCC1` [Entry 123, 1-({7-methoxy-8-[3-(pyrrolidin-1-yl)propoxy]benzo[b]1,8-naphthyridin-5-yl}amino)-2-methylpropan-2-ol formate]: at G9a, the IC50 amounted to 251 nM.

One may read the IC50 as the concentration that gives 50% inhibition. Higher therefore signals weaker potency.
